Experimental data published in patent publication US20230084144A1, “THERAPEUTIC COMBINATIONS OF DRUGS AND METHODS OF USING THEM” (ConSynance Therapeutics, Inc., priority 2020, published 2023).
Read-outs that look alike come from different tables or passages of the source.

Key:
[1] = molecular target: T1, Transporter, Dopamine (DAT) (Homo sapiens, UniProt Q01959); test: Radioligand binding, Transporter, Dopamine (DAT) (Eurofin Discovery 220320); conditions: for DAT, %inhibition 10 nM: 10 nM compound; for DAT, %inhibition 100 nM / inhibition at 0.1 µM: 100 nM compound
T1 construct: host or cells: CHO-S cells
T1 sequence (Q01959 whole entry): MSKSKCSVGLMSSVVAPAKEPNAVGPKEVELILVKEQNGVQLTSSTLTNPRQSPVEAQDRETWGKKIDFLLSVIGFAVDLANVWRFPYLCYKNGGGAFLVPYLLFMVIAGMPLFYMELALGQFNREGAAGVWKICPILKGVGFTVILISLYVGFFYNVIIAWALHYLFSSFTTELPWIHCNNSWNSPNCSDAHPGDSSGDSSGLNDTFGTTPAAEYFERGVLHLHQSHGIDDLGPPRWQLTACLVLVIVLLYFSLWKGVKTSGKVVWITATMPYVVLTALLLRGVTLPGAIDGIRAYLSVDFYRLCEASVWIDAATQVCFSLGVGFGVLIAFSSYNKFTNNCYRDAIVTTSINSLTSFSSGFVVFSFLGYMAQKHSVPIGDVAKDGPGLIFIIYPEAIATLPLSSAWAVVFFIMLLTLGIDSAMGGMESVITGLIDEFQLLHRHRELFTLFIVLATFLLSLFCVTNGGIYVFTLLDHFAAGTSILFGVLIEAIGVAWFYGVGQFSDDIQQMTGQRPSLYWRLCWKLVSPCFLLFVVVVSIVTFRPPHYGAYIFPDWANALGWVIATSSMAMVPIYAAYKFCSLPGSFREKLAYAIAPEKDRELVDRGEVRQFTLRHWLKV

[2] = molecular target: T2, Transporter, Norepinephrine (NET) (Homo sapiens, UniProt P23975); test: Radioligand binding, Transporter, Norepinephrine (NET) (Eurofin Discovery 204410)
T2 construct: host or cells: MDCK cells
T2 sequence (P23975 whole entry): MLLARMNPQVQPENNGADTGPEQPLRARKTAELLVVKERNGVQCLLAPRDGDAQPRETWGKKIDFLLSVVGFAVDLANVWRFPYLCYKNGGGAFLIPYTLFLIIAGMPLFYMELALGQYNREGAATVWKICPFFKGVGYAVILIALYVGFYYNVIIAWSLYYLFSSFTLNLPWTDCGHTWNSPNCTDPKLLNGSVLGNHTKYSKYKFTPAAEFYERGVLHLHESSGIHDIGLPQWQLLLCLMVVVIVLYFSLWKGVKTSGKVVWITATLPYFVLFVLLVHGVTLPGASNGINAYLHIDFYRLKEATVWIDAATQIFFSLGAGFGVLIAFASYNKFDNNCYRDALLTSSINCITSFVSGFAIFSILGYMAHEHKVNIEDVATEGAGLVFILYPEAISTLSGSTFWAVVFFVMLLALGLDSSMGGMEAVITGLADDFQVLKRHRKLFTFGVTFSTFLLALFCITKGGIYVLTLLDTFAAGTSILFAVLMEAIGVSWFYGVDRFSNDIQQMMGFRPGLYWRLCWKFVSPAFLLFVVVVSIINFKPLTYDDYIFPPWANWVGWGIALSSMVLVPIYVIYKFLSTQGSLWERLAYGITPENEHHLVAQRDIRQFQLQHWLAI

[3] = molecular target: T3, MCHR1 (Homo sapiens, UniProt Q99705); test: MCHR1 pharmacology of the N-acetyl metabolite
Excerpt: By substituting the hydrogens with deuterium on the carbon(s) adjacent to the nitrogen which is acetylated (see for example, Examples 5 to 7), acetylation process can be slowed down to reduce the formation of this metabolite.
Target sequence in this assay (Q99705 whole entry, species assumed): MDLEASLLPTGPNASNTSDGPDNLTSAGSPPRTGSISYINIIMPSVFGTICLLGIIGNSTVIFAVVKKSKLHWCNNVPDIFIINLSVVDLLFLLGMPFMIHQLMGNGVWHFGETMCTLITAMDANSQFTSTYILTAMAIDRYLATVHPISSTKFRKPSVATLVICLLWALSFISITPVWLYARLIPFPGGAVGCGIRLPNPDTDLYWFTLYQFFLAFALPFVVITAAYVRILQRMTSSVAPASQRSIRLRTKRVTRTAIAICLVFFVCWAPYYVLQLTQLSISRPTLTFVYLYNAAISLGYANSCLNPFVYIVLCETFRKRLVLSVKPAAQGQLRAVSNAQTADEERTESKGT

[4] = molecular target: T4, DAT (Homo sapiens, UniProt Q01959); conditions: cited from earlier work
T4 construct: from tissue; host or cells: striatum of healthy male volunteers, in vivo PET
T4 sequence (Q01959 whole entry): as the sequence (Q01959 whole entry) above

[5] = molecular target: NET (Homo sapiens, UniProt P23975); conditions: at efficacious doses; cited from earlier work
Chain of NET (P23975 whole entry): as the sequence (P23975 whole entry) above

[6] = molecular target: T1, Transporter, Dopamine (DAT); conditions: radioligand, Historical Values; cited from earlier work
[7] = molecular target: T2, Transporter, Norepinephrine (NET); conditions: radioligand, Historical Values; cited from earlier work
[8] = tested on: PWS patients; conditions: standard mg/day dosing, cited from earlier work
[9] = molecular target: T3, MCHR1; design: host or cells: CHO-K1 cells; conditions: radioligand, Historical Values; cited from earlier work
Target sequence in this assay (Q99705 whole entry): as the sequence (Q99705 whole entry, species assumed) above

## [2H]C1([2H])NC([2H])([2H])C([2H])(c2ccc(Cl)c(Cl)c2)c2ccc(-c3ccc4ncnn4c3)cc21 (single isomer, unassigned) [Compound 8A, 7-([1,2,4]triazolo[1,5-a]pyridin-6-yl)-4-(3,4-dichlorophenyl)-1,2,3,4-tetrahydroisoquinoline-1,1,3,3,4-d5]
[1]
  DAT, %inhibition 10 nM: 44%

## [2H]C1([2H])NC([2H])([2H])C([2H])(c2ccc(Cl)c(Cl)c2)c2ccc(-c3ccc4ncnn4c3)cc21 (single isomer, unassigned) [Compound 8B, 7-([1,2,4]triazolo[1,5-a]pyridin-6-yl)-4-(3,4-dichlorophenyl)-1,2,3,4-tetrahydroisoquinoline-1,1,3,3,4-d5]
[1]
  DAT, %inhibition 10 nM: 4%
  DAT, %inhibition 100 nM: 75%
[2]; 10 nM compound
  NET, %inhibition 10 nM: 37%
[2]; 100 nM compound
  NET, %inhibition 100 nM: 71%

## [2H]C1([2H])NCC(c2ccc(Cl)c(Cl)c2)c2ccc(-c3ccc4ncnn4c3)cc21 (single isomer, unassigned) [Compound 12A, 7-([1,2,4]triazolo[1,5-a]pyridin-6-yl)-4-(3,4-dichlorophenyl)-1,2,3,4-tetrahydroisoquinoline-1,1-d2]
[1]
  DAT, %inhibition 10 nM: 53%
  inhibition at 0.1 µM: 92%

## [2H]C1([2H])NCC(c2ccc(Cl)c(Cl)c2)c2ccc(-c3ccc4ncnn4c3)cc21 (single isomer, unassigned) [Compound 12B, 7-([1,2,4]triazolo[1,5-a]pyridin-6-yl)-4-(3,4-dichlorophenyl)-1,2,3,4-tetrahydroisoquinoline-1,1-d2]
[1]
  DAT, %inhibition 10 nM: 0%
  DAT, %inhibition 100 nM: 74%
[2]; 10 nM compound
  NET, %inhibition 10 nM: 44%
[2]; 100 nM compound
  NET, %inhibition 100 nM: 74%

## [2H]C1([2H])NCc2cc(-c3ccc4ncnn4c3)ccc2C1([2H])c1ccc(Cl)c(Cl)c1 (single isomer, unassigned) [Compound 16A, 7-([1,2,4]triazolo[1,5-a]pyridin-6-yl)-4-(3,4-dichlorophenyl)-1,2,3,4-tetrahydroisoquinoline-3,3,4-d3]
[1]
  DAT, %inhibition 10 nM: 47%
  inhibition at 0.1 µM: 91%
[2]; 10 nM compound
  inhibition at 0.01 µM: 38%
[2]; 100 nM compound
  inhibition at 0.1 µM: 83%

## [2H]C1([2H])NCc2cc(-c3ccc4ncnn4c3)ccc2C1([2H])c1ccc(Cl)c(Cl)c1 (single isomer, unassigned) [Compound 16B, 7-([1,2,4]triazolo[1,5-a]pyridin-6-yl)-4-(3,4-dichlorophenyl)-1,2,3,4-tetrahydroisoquinoline-3,3,4-d3]
[1]
  DAT, %inhibition 10 nM: -2%

## CC(=O)N1CCc2c(c3ccc(-n4ccc(OCc5ccc(F)cn5)cc4=O)cc3n2C)C1 [1-(2-acetyl-5-methyl-2,3,4,5-tetrahydro-1H-pyrido[4,3-b]indol-7-yl)-4-((5-fluoropyridin-2-yl)methoxy)pyridin-2(1H)-one]
[3]
  contribution to MCHR1 antagonism: does not contribute to the pharmacology of MCHR1 antagonism

## CC(NC(C)(C)C)C(=O)c1cccc(Cl)c1 (centres unmarked) [Bupropion]
[4]; at efficacious doses
  Lowest Occupancy DAT: 14% (Bupropion)
[4]; at various approved doses
  DAT occupancy: 14-26%

## COC(=O)C(c1ccccc1)C1CCCCN1 (centres unmarked) [Methylphenidate]
[4]; at efficacious doses
  Highest Occupancy DAT: 74% (Methylphenidate)
[4]; at various approved doses
  DAT occupancy: 40-74%

## COc1ccc(C(CN(C)C)C2(O)CCCCC2)cc1 (centres unmarked) [Venlafaxine]
[5]
  Highest Occupancy NET: 61% (Venlafaxine)
  Lowest Occupancy NET: 8% (Venlafaxine)
  NET occupancies: 8-61%

## COC(=O)[C@H]1[C@@H](c2ccc(I)cc2)C[C@@H]2CC[C@H]1N2C [[^125I] RTI-55]
[6]
  Kd: 0.58 nM
[7]
  Kd: 24 nM

## NC(=O)C[S+]([O-])C(c1ccccc1)c1ccccc1 (centres unmarked) [modafinil]
[4]; at various approved doses
  DAT occupancy: 51-57%

## CCOC[C@@H]1[C@@H](c2ccc(Cl)c(Cl)c2)C[C@@H]2CC[C@H]1N2C [tesofensine]
[4]; suggested as the optimal weight loss doses
  DAT occupancy: 50%-70%
[8]; PWS patients with the appropriate plasma drug level
  hyperphagia: controlled completely
[8]; PWS patients
  patients with plasma drug levels exceeding the safety levels who discontinued due to adverse events: ⅔
[8]; lowering the dosing for all patients
  efficacy: no efficacy

## [^125I] Tyr-S36057
[9]
  Kd: 0.1 nM
